Laboratory results as given in ChEMBL document CHEMBL3352578 (J Med Chem, 2014).
Calls of active or inactive are those of the source. The rule behind the calls is not given here.

Assays:
[1] = Oral bioavailability in Sprague-Dawley rat at 10 mg/kg; assay type: ADME, organism-based; settings: in vivo
[2] = Tmax in dog at 1 mg/kg, iv; assay type: ADME, organism-based, Canis lupus familiaris; set-up: dose 1 mg/kg, route intravenous; settings: in vivo
[3] = Oral bioavailability in dog at 2.5 mg/kg; assay type: ADME, organism-based, Canis lupus familiaris; settings: in vivo
[4] = AUC (0 to infinity) in dog at 2.5 mg/kg, po; assay type: ADME, organism-based, Canis lupus familiaris; set-up: time infinity, dose 2.5 mg/kg, route oral; settings: plasma
[5] = target: Metabotropic glutamate receptor 3 (Homo sapiens) (UniProt Q14832); experiment: Binding affinity to human mGlu3 receptor expressed in HEK293 cells assessed as calcium mobilization by [35S]GTPgamma binding assay; assay type: functional, cell-based
Metabotropic glutamate receptor 3 (Homo sapiens), sequence (Q14832 23-879 limits assumed): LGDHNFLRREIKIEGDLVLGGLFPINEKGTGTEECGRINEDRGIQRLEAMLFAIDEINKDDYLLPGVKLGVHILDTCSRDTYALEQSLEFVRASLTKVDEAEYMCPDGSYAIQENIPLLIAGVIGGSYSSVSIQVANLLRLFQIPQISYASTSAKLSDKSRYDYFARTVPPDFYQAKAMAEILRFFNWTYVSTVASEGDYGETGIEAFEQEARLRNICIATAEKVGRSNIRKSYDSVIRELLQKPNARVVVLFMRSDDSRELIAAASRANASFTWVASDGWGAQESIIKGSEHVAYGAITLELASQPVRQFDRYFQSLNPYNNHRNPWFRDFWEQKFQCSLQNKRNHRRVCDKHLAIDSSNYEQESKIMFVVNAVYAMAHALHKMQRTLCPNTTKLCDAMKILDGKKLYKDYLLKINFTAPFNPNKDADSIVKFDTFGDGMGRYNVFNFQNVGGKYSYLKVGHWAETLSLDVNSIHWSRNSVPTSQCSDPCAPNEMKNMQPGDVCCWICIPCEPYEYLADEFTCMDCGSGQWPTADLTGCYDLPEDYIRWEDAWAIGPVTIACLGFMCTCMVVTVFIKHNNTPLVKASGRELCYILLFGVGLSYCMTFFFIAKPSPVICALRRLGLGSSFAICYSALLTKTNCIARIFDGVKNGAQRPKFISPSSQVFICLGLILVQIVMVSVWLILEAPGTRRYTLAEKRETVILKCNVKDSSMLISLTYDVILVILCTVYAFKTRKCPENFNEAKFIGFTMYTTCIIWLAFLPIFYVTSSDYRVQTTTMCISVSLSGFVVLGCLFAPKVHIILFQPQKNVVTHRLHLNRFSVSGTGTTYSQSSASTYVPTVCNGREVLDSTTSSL

[6] = AUC (0 to infinity) in Sprague-Dawley rat at 10 mg/kg, po; assay type: ADME, organism-based; set-up: time infinity, dose 10 mg/kg, route oral; settings: plasma
Rattus norvegicus [7] = experiment: Positive allosteric modulation of mGlu2 receptor in Sprague-Dawley rat sleep-wake EEG paradigm model assessed as effect on passive wake stage at 3 mg/kg, po after 4 hrs by electroencephalogram analysis; assay type: functional, organism-based; set-up: dose 3 mg/kg
[8] = Apparent permeability from apical to basolateral side in human Caco2 cells; assay type: ADME, cell-based; settings: Caco-2
[9] = Dissociation constant, pKa of the compound; assay type: physicochemical
[10] = Metabolic stability in rat liver microsomes assessed as compound metabolized at 5 uM after 15 mins by MS/MS analysis in presence of NADPH; assay type: ADME; settings: read-out: Drug metabolism
[11] = Metabolic stability in human liver microsomes assessed as compound metabolized at 5 uM after 15 mins by MS/MS analysis in presence of NADPH; assay type: ADME; settings: read-out: Drug metabolism
[12] = target: Metabotropic glutamate receptor 6 (Rattus norvegicus) (UniProt P35349); experiment: Binding affinity to rat mGlu6 receptor expressed in CHO cells assessed as calcium mobilization by [35S]GTPgamma binding assay; assay type: functional, cell-based
Metabotropic glutamate receptor 6 (Rattus norvegicus), sequence (P35349 whole entry): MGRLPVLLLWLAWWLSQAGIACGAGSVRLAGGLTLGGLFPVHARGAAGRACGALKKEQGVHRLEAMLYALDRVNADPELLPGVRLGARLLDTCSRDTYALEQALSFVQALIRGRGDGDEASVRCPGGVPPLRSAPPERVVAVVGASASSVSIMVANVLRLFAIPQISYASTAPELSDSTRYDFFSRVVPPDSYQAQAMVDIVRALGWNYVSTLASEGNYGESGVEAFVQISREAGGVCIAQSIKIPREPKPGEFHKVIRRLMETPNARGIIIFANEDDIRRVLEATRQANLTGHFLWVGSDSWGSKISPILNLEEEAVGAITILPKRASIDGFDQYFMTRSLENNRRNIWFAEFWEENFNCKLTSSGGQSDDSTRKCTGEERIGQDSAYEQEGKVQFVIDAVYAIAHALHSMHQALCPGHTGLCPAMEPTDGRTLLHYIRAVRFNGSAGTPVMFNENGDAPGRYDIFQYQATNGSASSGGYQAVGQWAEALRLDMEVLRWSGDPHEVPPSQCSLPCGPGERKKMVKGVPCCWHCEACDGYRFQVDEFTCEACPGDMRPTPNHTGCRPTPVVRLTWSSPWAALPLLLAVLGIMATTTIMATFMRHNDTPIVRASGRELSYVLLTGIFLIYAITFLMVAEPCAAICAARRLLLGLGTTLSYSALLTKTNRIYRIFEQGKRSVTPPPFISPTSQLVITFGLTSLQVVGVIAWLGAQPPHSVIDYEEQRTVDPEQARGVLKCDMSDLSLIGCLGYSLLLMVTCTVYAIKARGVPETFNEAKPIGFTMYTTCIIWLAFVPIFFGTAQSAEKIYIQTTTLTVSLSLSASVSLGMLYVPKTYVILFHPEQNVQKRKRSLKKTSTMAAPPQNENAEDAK

[13] = target: Metabotropic glutamate receptor 1 (Homo sapiens) (UniProt Q13255); experiment: Binding affinity to human mGlu1 receptor expressed in HEK293 cells assessed as calcium mobilization by [35S]GTPgamma binding assay; assay type: functional, cell-based
Metabotropic glutamate receptor 1 (Homo sapiens), sequence (Q13255 19-1194 limits assumed): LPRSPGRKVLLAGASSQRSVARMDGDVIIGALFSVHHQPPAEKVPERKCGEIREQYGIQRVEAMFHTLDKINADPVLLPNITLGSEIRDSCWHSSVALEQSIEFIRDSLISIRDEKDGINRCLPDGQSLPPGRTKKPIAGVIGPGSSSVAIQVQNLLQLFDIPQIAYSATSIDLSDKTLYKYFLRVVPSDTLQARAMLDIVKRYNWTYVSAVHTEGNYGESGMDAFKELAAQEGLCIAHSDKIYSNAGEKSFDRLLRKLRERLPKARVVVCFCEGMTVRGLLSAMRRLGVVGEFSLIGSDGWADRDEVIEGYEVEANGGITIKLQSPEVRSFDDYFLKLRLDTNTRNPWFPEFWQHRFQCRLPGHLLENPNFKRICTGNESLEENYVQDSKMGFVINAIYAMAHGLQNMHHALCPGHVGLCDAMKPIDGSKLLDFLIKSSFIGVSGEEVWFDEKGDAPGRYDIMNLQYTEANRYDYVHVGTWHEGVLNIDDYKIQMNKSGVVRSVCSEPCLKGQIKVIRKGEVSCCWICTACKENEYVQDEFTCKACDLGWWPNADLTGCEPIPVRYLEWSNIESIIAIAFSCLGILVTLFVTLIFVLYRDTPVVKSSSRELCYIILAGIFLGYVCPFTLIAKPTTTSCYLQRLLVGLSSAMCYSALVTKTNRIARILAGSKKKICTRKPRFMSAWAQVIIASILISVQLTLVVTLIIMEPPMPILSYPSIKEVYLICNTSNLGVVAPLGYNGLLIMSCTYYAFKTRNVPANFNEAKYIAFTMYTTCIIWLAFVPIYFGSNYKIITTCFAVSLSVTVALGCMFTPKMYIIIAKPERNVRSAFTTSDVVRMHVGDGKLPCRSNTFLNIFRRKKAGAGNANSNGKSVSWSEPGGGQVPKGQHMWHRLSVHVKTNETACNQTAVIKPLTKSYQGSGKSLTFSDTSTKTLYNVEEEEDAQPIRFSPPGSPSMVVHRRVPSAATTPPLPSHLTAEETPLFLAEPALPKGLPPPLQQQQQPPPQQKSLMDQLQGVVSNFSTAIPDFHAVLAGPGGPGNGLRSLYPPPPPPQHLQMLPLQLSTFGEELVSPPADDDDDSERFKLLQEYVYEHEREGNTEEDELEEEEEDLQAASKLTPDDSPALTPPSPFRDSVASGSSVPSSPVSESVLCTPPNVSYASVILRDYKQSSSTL

[14] = Apparent permeability from basolateral to apical side in human Caco2 cells; assay type: ADME, cell-based; settings: Caco-2
[15] = Volume of distribution at steady state in dog at 1 mg/kg, iv; assay type: ADME, organism-based, Canis lupus familiaris; set-up: dose 1 mg/kg, route intravenous; settings: in vivo, read-out: Vdss
Rattus norvegicus [16] = experiment: Positive allosteric modulation of mGlu2 receptor in Sprague-Dawley rat sleep-wake EEG paradigm model assessed as reduction in REM sleep at 3 mg/kg, po after 4 hrs by electroencephalogram analysis; assay type: functional, organism-based; set-up: dose 3 mg/kg
Rattus norvegicus [17] = experiment: Positive allosteric modulation of mGlu2 receptor in Sprague-Dawley rat sleep-wake EEG paradigm model assessed as effect on deep sleep stage at 3 mg/kg, po after 4 hrs by electroencephalogram analysis; assay type: functional, organism-based; set-up: dose 3 mg/kg
[18] = Volume of distribution at steady state in Sprague-Dawley rat at 2.5 mg/kg, iv; assay type: ADME, organism-based; set-up: dose 2.5 mg/kg, route intravenous; settings: in vivo, read-out: Vdss
[19] = Cmax in dog at 2.5 mg/kg, po; assay type: ADME, organism-based, Canis lupus familiaris; set-up: dose 2.5 mg/kg, route oral; settings: in vivo
Rattus norvegicus [20] = experiment: Positive allosteric modulation of mGlu2 receptor in Sprague-Dawley rat sleep-wake EEG paradigm model assessed as effect on light sleep stage at 3 mg/kg, po after 4 hrs by electroencephalogram analysis; assay type: functional, organism-based; set-up: dose 3 mg/kg
Rattus norvegicus [21] = experiment: Positive allosteric modulation of mGlu2 receptor in Sprague-Dawley rat sleep-wake EEG paradigm model assessed as effect on active wake stage at 3 mg/kg, po after 4 hrs by electroencephalogram analysis; assay type: functional, organism-based; set-up: dose 3 mg/kg
[22] = target: Metabotropic glutamate receptor 5 (Homo sapiens) (UniProt P41594); experiment: Binding affinity to human mGlu5 receptor expressed in HEK293 cells assessed as calcium mobilization by [35S]GTPgamma binding assay; assay type: functional, cell-based
Metabotropic glutamate receptor 5 (Homo sapiens), sequence (P41594 21-1212 limits assumed): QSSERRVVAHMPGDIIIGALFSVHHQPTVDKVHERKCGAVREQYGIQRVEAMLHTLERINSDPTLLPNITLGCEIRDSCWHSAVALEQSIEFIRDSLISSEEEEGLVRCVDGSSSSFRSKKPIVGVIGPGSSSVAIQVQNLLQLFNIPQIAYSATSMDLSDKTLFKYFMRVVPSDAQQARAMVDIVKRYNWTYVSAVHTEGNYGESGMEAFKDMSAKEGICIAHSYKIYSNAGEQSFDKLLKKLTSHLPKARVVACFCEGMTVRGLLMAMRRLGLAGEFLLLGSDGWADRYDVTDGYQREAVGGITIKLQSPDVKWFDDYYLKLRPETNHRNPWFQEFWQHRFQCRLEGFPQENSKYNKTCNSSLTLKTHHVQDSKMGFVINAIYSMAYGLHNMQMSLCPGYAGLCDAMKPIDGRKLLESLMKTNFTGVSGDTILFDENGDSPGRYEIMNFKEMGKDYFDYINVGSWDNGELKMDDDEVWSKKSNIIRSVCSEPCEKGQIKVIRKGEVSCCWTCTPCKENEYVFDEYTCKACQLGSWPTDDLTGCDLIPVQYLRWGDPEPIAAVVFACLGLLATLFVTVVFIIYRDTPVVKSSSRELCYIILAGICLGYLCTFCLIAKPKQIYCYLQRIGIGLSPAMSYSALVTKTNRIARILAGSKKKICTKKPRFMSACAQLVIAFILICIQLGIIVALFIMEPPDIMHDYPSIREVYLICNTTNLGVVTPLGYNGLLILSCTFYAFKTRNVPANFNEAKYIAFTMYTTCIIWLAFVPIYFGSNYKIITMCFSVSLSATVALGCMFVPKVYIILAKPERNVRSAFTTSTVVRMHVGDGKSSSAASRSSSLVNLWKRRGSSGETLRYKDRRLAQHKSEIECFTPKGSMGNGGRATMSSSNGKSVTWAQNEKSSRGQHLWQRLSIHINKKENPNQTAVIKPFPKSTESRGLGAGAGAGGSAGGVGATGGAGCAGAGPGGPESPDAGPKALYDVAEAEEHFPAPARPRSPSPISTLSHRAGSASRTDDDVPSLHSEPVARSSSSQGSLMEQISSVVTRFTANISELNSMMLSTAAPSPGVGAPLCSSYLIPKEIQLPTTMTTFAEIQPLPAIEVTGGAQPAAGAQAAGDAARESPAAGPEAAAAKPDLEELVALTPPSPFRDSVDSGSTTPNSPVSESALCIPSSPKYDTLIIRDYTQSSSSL

Rattus norvegicus [23] = experiment: Positive allosteric modulation of mGlu2 receptor in po dosed Sprague-Dawley rat assessed free plasma drug level causing effect on sleep-wake EEG paradigm after 20 hrs by electroencephalogram analysis; assay type: functional
Rattus norvegicus [24] = experiment: Positive allosteric modulation of mGlu2 receptor in Sprague-Dawley rat sleep-wake EEG paradigm model assessed as effect on intermediate state at 3 mg/kg, po after 4 hrs by electroencephalogram analysis; assay type: functional, organism-based; set-up: dose 3 mg/kg
Rattus norvegicus [25] = experiment: Positive allosteric modulation of mGlu2 receptor in po dosed Sprague-Dawley rat assessed effect on sleep-wake EEG paradigm after 20 hrs by electroencephalogram analysis; assay type: functional
[26] = Lipophilicity, log P of the compound at pH 6.8; assay type: physicochemical; settings: buffer
[27] = Clearance in Sprague-Dawley rat at 2.5 mg/kg, iv; assay type: ADME, organism-based; set-up: dose 2.5 mg/kg, route intravenous; settings: in vivo
[28] = Ratio of drug level in brain to plasma in Swiss mouse at 10 mg/kg, sc after 1 hr; assay type: ADME, organism-based; set-up: dose 10 mg/kg, route subcutaneous; settings: brain and plasma, read-out: BPR
[29] = Elimination half life in Sprague-Dawley rat at 2.5 mg/kg, iv; assay type: ADME, organism-based; set-up: dose 2.5 mg/kg, route intravenous; settings: in vivo, read-out: beta t1/2 (converted)
[30] = Cmax in Sprague-Dawley rat at 10 mg/kg, po; assay type: ADME, organism-based; set-up: dose 10 mg/kg, route oral; settings: in vivo
[31] = Elimination half life in dog at 1 mg/kg, iv; assay type: ADME, organism-based, Canis lupus familiaris; set-up: dose 1 mg/kg, route intravenous; settings: in vivo, read-out: beta t1/2 (converted)
[32] = Tmax in Sprague-Dawley rat at 2.5 mg/kg, iv; assay type: ADME, organism-based; set-up: dose 2.5 mg/kg, route intravenous; settings: in vivo
[33] = target: Metabotropic glutamate receptor 4 (Homo sapiens) (UniProt Q14833); experiment: Binding affinity to human mGlu4 receptor expressed in […] L929 cells assessed as calcium mobilization by [35S]GTPgamma binding assay; assay type: functional, cell-based
Metabotropic glutamate receptor 4 (Homo sapiens), sequence (Q14833 whole entry): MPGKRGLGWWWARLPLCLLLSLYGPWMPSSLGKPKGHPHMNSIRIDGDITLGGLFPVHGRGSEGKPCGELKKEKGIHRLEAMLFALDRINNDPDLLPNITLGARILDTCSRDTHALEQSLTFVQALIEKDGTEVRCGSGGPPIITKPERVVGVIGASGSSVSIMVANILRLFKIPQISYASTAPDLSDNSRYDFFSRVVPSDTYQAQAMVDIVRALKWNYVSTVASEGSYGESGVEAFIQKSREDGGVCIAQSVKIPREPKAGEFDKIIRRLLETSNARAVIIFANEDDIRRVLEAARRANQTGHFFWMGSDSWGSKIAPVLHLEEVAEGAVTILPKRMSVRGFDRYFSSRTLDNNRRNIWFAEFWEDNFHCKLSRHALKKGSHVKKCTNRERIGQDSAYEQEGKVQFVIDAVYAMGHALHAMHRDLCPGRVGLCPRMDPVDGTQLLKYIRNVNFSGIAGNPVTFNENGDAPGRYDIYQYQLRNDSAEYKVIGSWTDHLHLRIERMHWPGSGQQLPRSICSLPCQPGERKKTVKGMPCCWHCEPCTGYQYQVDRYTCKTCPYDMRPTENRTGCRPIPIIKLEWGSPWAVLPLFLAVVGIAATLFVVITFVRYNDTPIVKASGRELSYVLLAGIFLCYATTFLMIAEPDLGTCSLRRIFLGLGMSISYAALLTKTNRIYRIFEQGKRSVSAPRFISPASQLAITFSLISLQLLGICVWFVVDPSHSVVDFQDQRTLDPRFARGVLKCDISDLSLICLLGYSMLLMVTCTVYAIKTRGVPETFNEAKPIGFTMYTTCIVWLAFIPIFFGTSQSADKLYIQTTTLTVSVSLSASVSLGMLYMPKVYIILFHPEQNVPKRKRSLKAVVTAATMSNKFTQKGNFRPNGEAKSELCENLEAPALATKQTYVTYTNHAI

[34] = Clearance in dog at 1 mg/kg, iv; assay type: ADME, organism-based, Canis lupus familiaris; set-up: dose 1 mg/kg, route intravenous; settings: in vivo

bioavailability [1]: 31% | Tmax [2]: 0.5 h | bioavailability [3]: 20% | AUC(0-inf) [4]: 0.743 µg·h/mL | Activity [5]: inactive | AUC(0-inf) [6]: 2.25 µg·h/mL | Papp A→B [8]: 120 nm/s | pKa [9]: < 2 | metabolised at 0.25 h, 5 µM [10]: 53% | metabolised at 0.25 h, 5 µM [11]: 23% | Activity [12]: inactive | Activity [13]: inactive | Papp B→A [14]: 60 nm/s | Vd [15]: 1.8 L/kg | Vd [18]: 2.3 L/kg | Cmax [19]: 0.373 µg/mL | Activity [22]: inactive | logD [26]: 4.6 | clearance [27]: 1.38 L/h/kg | Kp at 1 h [28]: 1 | half-life [29]: 2.3 h | Cmax [30]: 0.938 µg/mL | half-life [31]: 3.7 h | Tmax [32]: 0.5 h | Activity [33]: inactive | clearance [34]: 1.38 L/h/kg
SMILES: CCCCn1ccc(N2CCC(c3ccccc3)CC2)c(Cl)c1=O [JNJ-40411813]
Activity (Rattus norvegicus [7]): inactive | Activity (Rattus norvegicus [16]): Active | Activity (Rattus norvegicus [17]): inactive | Activity (Rattus norvegicus [20]): inactive | Activity (Rattus norvegicus [21]): inactive | fMEC (Rattus norvegicus [23]): 0.9 ng/mL | Activity (Rattus norvegicus [24]): inactive | MEC (Rattus norvegicus [25]): 281 ng/mL | minimal effective dose (Rattus norvegicus [25]; Rattus norvegicus, Sprague-Dawley, po, 20 h, read-out: MED): 3 mg/kg
